From US8440717B2, “Hair growth regulating agent” (Kao Corporation, priority 2008, dated 2013)

Tested on: porcine hair follicles
Test: Hair growth suppressing effect by organ culture method using porcine hair follicles
Format: cell-based, pig
Settings: for activity at 3e-05 % / activity at 0.003 %: 120 h, day 5 after start of culture with sample-containing medium; for activity at 3e-05 %: concentration 0.00003%; for activity at 0.003 %: concentration 0.003%; for activity at 0.01 %: concentration 0.01%
Method: The skin of a pork pig was cut into pieces of appropriate size, and excess fat was removed. For disinfection, the skin pieces were immersed in a Hibitane solution under sterile conditions for 10 to 20 minutes. The thus-disinfected skin pieces were washed several times with D-PBS.
Subsequently, hair follicles were isolated from the thus-treated skin pieces under a stereomicroscope by means of tweezers and a scalpel (FEATHER No. 10), and the hair follicles were placed on William's Medium E (Gibco cat. No. 12551-032) supplemented with penicillin/streptomycin (Gibco cat. No. 15140-122) solution by 10.
The isolated hair follicles were transferred to a 24-well culture plate (one follicle/well) together with the aforementioned culture medium (400 μL), and cultured in an incubator (37° C., 5% CO2) for two days.
Subsequently, compounds synthesized in Example 1 (compounds 2, 6, 7, and 9 to 13) were diluted with the aforementioned culture medium, to thereby prepare sample-containing media. Each of the thus-prepared sample-containing media was used for replacement. Similarly, N,N-dimethylglycine methyl ester (DMG) and 1,8-diaminooctane (1,8-DAO) were diluted with the aforementioned culture medium, to thereby prepare sample-containing media. Each of the thus-prepared sample-containing media was also used for replacement.
The medium for culture of hair follicles was replaced with each of the sample-containing media, and thereafter, replaced with a sample-containing medium every one or two days. At days five or six after the start of culture with the sample-containing medium, the elongation of hair follicles (i.e., elongation of hair) was measured and compared with that of the control in which medium was replaced with only the non-sample-containing medium. The elongation of hair follicles (i.e., elongation of hair) in the control medium was taken as 100%.
The sample concentration of each sample-containing medium was set within a range that the sample is completely dissolved in the medium, and at non-cytotoxic levels which cause no reduction of cell viability with 24-hour addition of the sample to epidermal cells.

[1] = Sus scrofa, read-out: Percent growth of hair follicles (control = 100%)
[2] = Sus scrofa, 144 h, day 6 after start of culture with sample-containing medium, read-out: Percent growth of hair follicles (control = 100%)

With `NCCCCCCCCN` [1,8-DAO, 1,8-diaminooctane, reference compound] the activity at 0.03 % (Sus scrofa, 144 h, day 6 after start of culture with sample-containing medium, concentration 0.03%, read-out: Percent growth of hair follicles (control = 100%)) was 87.9%.
Work on `CCCCCCCCCCCCNC(=O)CN(C)C` [Compound 2, 2-Dimethylamino-N-Dodecyl-Acetamide] yielded an activity at 3e-05 % [1] of 108%.
Compound `CCNC(=O)CN(C)C` [Compound 6, 2-Dimethylamino-N-Ethyl-Acetamide] has an activity at 0.003 % [1] of 91.6%.
In the case of `CCCCCCCCCCCCNC(=O)C[N+](C)(C)C.[Cl-]` [Compound 7, Dodecylcarbamoylmethyltrimethylammonium Chloride], the activity at 3e-05 % [1] is reported as 42.4% and the “suppressive effect on growth of hair follicles (i.e., hair growth), rank among tested compounds” value (comparison across Tables 1 and 2, compound 7 at 0.000030) is reported as “highest suppressive effect”.
Work on `CN(C)CC(=O)NCCOCCOCCNC(=O)CN(C)C` [Compound 9, 2-Dimethylamino-N-(2-{2-[2-(2-Dimethylamino-Acetylamino)-Ethoxy]-Ethoxy}-Ethyl)-Acetamide] yielded an activity at 0.01 % [2] of 62.4%.
For `CN(C)CC(=O)NCCCCCCCCNC(=O)CN(C)C` [Compound 10, 2-Dimethylamino-N-[8-(2-Dimethylamino-Acetylamino)-Octyl]-Acetamide], the activity at 0.01 % [2] was 54.7%.
With `CN(C)CC(=O)NCCOCCOCCOCCNC(=O)CN(C)C` [Compound 11, 2-Dimethylamino-N-[2-(2-{2-[2-(2-Dimethylamino-Acetylamino)-Ethoxy]-Ethoxy}-Ethoxy)-Ethyl]-Acetamide] the activity at 0.003 % [1] was 97%.
Work on `CN(C)CC(=O)NCCCCCCCCCCCCNC(=O)CN(C)C` [Compound 12, 2-Dimethylamino-N-[12-(2-Dimethylamino-Acetylamino)-Dodecyl]-Acetamide] yielded an activity at 0.003 % [1] of 48.7%.
With `CN(C)CC(=O)NCCCCNC(=O)CN(C)C` [Compound 13, 2-Dimethylamino-N-[4-(2-Dimethylamino-Acetamino)-Butyl]-Acetamide] the activity at 0.003 % [1] was 79.1%.
